We go through 24 molecules from paper PMC9486808 (ACS Chemical Biology, 2022).

“And” between values parts separate entries of the source, which are not always exact repeats. Identical values can stand only once. Starred links: 1 amine or outer side, 2 acyl side, 3 side chain; linkers in the order of their positions; H or OH if unused. Positions of bridges follow the written chain, without caps; N, C: chain ends. Non-standard residues stand in square brackets, D forms with d. Residues, ends and D or L forms follow the SMILES beside them. Groups on a side chain read outwards from the residue. *: point of attachment. X1 = O=C([C@H](CCn1nnc2c1-c1ccccc1CN([*:3])c1ccccc1-2)N[*:1])[*:2]; 6FAM = O=C1OC2(c3ccc(O)cc3Oc3cc(O)ccc32)c2cc(C(=O)*)ccc21; AEEA = NCCOCCOCC(=O)O; Ahx = NCCCCCC(=O)O Bounds are passed on as bounds.

For one data set, the target named is H1 ectodomain (Influenza A virus, UniProt C3W5S1). The data set is described as follows: biochemical. The class given is binding, Influenza A virus A/California/04/2009 (H1N1).
Sequence of H1 ectodomain (C3W5S1 entry or part of it, added parts left off): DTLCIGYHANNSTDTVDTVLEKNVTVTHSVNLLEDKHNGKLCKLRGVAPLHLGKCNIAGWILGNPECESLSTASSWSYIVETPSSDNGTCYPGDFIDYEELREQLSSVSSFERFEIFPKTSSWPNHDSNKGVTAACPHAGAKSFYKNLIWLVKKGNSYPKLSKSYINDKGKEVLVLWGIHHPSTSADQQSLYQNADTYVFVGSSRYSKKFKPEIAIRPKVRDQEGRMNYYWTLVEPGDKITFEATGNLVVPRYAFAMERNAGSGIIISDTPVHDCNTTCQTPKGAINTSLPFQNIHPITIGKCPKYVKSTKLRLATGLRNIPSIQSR
Data set [1] relates to H3N1 virus carrying H3 HA of A/Bilthoven/1761/76 (H3N2) in the H1N1pr8 background. The class given is cell-based, Influenza A virus.
In data set [2] the test system is H1N1pr8 (A/PR8/8/34/Mount Sinai). The class given is cell-based, Influenza A virus.
For another data set, the target named is H1 HA (Influenza A virus, UniProt C3W5S1). The class given is binding, Influenza A virus A/California/04/2009 (H1N1).
The subject of data set [3] is H5N1 virus carrying H5 HA of A/duck/Hunan/795/2002 in the H1N1pr8 genetic background. The conditions noted are these: 16 h.
Data set [4] relates to H1N1pdm09 (A/Netherlands/602/2009). The class given is cell-based, Influenza A virus.
Data set [5] addresses H1 ectodomain of A/California/04/2009 (H1N1) (Influenza A virus, UniProt C3W5S1). The class given is binding, Influenza A virus A/California/04/2009 (H1N1).
In data set [6] the test system is H1N1pdm09 (A/Netherlands/602/2009).
The next data set is described as follows: in vitro. The conditions noted are these: HeLa R19 cells and MDCKI cells.

Sequence of H1 ectodomain of A/California/04/2009 (H1N1) (C3W5S1 entry or part of it, added parts left off): as above

As to `CC(C)C[C@H](NC(=O)[C@@H]1CSCC(=O)N[C@@H](Cc2ccc(O)cc2)C(=O)N[C@@H](Cc2c[nH]c3ccccc23)C(=O)N[C@@H](Cc2c[nH]cn2)C(=O)N[C@@H](CCCCN)C(=O)N[C@@H](CC(N)=O)C(=O)N[C@@H](CCCCN)C(=O)N[C@@H](Cc2ccc(O)cc2)C(=O)N[C@@H](C(C)C)C(=O)N[C@@H](CC(C)C)C(=O)N[C@@H]([C@@H](C)O)C(=O)N[C@@H](Cc2ccc(O)cc2)C(=O)N[C@@H](CO)C(=O)N1)C(=O)N[C@@H](Cc1ccccc1)C(=O)N[C@@H](C)C(=O)N[C@@H](C)C(=O)NCCOCCOCC(=O)N[C@@H](CCn1nnc2c1-c1ccccc1CN(C(=O)CCCCCNC(=O)c1ccc3c(c1)C1(OC3=O)c3ccc(O)cc3Oc3cc(O)ccc31)c1ccccc1-2)C(=O)NCC(=O)N[C@@H](CC(=O)O)C(=O)N[C@@H](Cc1ccc(O)cc1)C(=O)N[C@@H](CCCCN)C(=O)N[C@@H](CC(=O)O)C(=O)N[C@@H](CC(=O)O)C(=O)N[C@@H](CC(=O)O)C(=O)N[C@@H](CC(=O)O)C(=O)N[C@@H](CCCCN)C(=O)NCC(N)=O` [L2FAM] ({CH2CO}-YWHKNKYVLTYSCLFAA[AEEA][X1]([Ahx-6FAM])GDYKDDDDKG-NH2; thioether N-13), the Hillslope at H1 ectodomain is 0.91 and 0.70.

`CC(C)C[C@H](NC(=O)[C@@H]1CSCC(=O)N[C@@H](Cc2ccc(O)cc2)C(=O)N[C@@H](Cc2c[nH]c3ccccc23)C(=O)N[C@@H](Cc2c[nH]cn2)C(=O)N[C@@H](CCCCN)C(=O)N[C@@H](CC(N)=O)C(=O)N[C@@H](CCCCN)C(=O)N[C@@H](Cc2ccc(O)cc2)C(=O)N[C@@H](C(C)C)C(=O)N[C@@H](CC(C)C)C(=O)N[C@@H]([C@@H](C)O)C(=O)N[C@@H](Cc2ccc(O)cc2)C(=O)N[C@@H](CO)C(=O)N1)C(=O)N[C@@H](Cc1ccccc1)C(=O)N[C@@H](C)C(=O)N[C@@H](C)C(=O)NCC(N)=O` [L2] ({CH2CO}-YWHKNKYVLTYSCLFAAG-NH2; thioether N-13): the entries for the “Inhibition of infection (infected cells relative to untreated control)” value in data set [1], in data set [2] and in data set [4] were “fell short of inhibiting”, “strongly inhibited infection” and “strongly inhibited infection”, respectively. For the same molecule, the ΔTm (°C), purified peptide at H1 HA came to 1 °C. For the same molecule, the results for the IC50 in data set [3] and in data set [6] (16 h) were 1050 ± 300 nM and 69 ± 8.3 nM, respectively. For the same molecule, at H1 ectodomain, the Kd (usually a measure of binding affinity in units of concentration) was 2.4 nM. Further, the “Binding region in the HA stem (HDX-MS)” value in [5] was “aa 369–387”. For the same molecule, in data set [6], the “Inhibition of infection at a single concentration” value was “strong inhibition of infection”. Also, in “in vitro”, the CC50 (as a rule, the concentration giving 50% cytotoxicity) at 72 h is over 5000 nM.

For `CC(C)[C@@H]1NC(=O)[C@H](Cc2c[nH]c3ccccc23)NC(=O)[C@H](CCCNC(=N)N)NC(=O)[C@H](Cc2ccc(O)cc2)NC(=O)CSC[C@@H](C(=O)NCCOCCOCC(=O)N[C@@H](CCn2nnc3c2-c2ccccc2CN(C(=O)CCCCCNC(=O)c2ccc4c(c2)C2(OC4=O)c4ccc(O)cc4Oc4cc(O)ccc42)c2ccccc2-3)C(=O)NCC(=O)N[C@@H](CC(=O)O)C(=O)N[C@@H](Cc2ccc(O)cc2)C(=O)N[C@@H](CCCCN)C(=O)N[C@@H](CC(=O)O)C(=O)N[C@@H](CC(=O)O)C(=O)N[C@@H](CC(=O)O)C(=O)N[C@@H](CC(=O)O)C(=O)N[C@@H](CCCCN)C(=O)NCC(N)=O)NC(=O)[C@H](C(C)C)NC(=O)[C@H](C(C)C)NC(=O)[C@H](Cc2ccccc2)NC(=O)[C@H](Cc2ccc(O)cc2)NC(=O)[C@@H]2CCCN2C(=O)[C@H](CCC(=O)O)NC(=O)[C@H](CO)NC(=O)[C@H](Cc2ccccc2)NC(=O)[C@H](Cc2ccccc2)NC(=O)[C@H](CO)NC(=O)[C@H]([C@@H](C)O)NC(=O)[C@H](Cc2c[nH]c3ccccc23)NC1=O` [L4FAM] ({CH2CO}-YRWVWTSFFSEPYFVVC[AEEA][X1]([Ahx-6FAM])GDYKDDDDKG-NH2; thioether N-17), at H1 ectodomain, the Hillslope is 0.96 and 0.76.

For the molecule `CC[C@H](C)[C@@H]1NC(=O)[C@H](CCCCN)NC(=O)[C@H](CO)NC(=O)[C@H](Cc2c[nH]c3ccccc23)NC(=O)[C@H](Cc2ccc(O)cc2)NC(=O)[C@H]([C@@H](C)CC)NC(=O)[C@H](CCCCN)NC(=O)[C@H](CC(C)C)NC(=O)[C@@H](Cc2ccc(O)cc2)NC(=O)CSC[C@@H](C(=O)NCCOCCOCC(=O)N[C@@H](CCn2nnc3c2-c2ccccc2CN(C(=O)CCCCCNC(=O)c2ccc4c(c2)C2(OC4=O)c4ccc(O)cc4Oc4cc(O)ccc42)c2ccccc2-3)C(=O)NCC(=O)N[C@@H](CC(=O)O)C(=O)N[C@@H](Cc2ccc(O)cc2)C(=O)N[C@@H](CCCCN)C(=O)N[C@@H](CC(=O)O)C(=O)N[C@@H](CC(=O)O)C(=O)N[C@@H](CC(=O)O)C(=O)N[C@@H](CC(=O)O)C(=O)N[C@@H](CCCCN)C(=O)NCC(N)=O)NC(=O)[C@H](Cc2c[nH]c3ccccc23)NC(=O)[C@H](CCC(=O)O)NC(=O)[C@H](CO)NC(=O)[C@H](C(C)C)NC(=O)[C@H](CC(C)C)NC(=O)CNC(=O)[C@H](Cc2c[nH]cn2)NC1=O` [S3FAM] ({CH2CO}-[dY]LKIYWSKIHGLVSEWC[AEEA][X1]([Ahx-6FAM])GDYKDDDDKG-NH2; thioether N-17), the Hillslope at H1 ectodomain was 1.02 and 0.94.

As to `CC(C)C[C@@H]1NC(=O)[C@H](C(C)C)NC(=O)[C@@H](Cc2ccc(O)cc2)NC(=O)CSC[C@@H](C(=O)NCCOCCOCC(=O)N[C@@H](CCn2nnc3c2-c2ccccc2CN(C(=O)CCCCCNC(=O)c2ccc4c(c2)C2(OC4=O)c4ccc(O)cc4Oc4cc(O)ccc42)c2ccccc2-3)C(=O)NCC(=O)N[C@@H](CC(=O)O)C(=O)N[C@@H](Cc2ccc(O)cc2)C(=O)N[C@@H](CCCCN)C(=O)N[C@@H](CC(=O)O)C(=O)N[C@@H](CC(=O)O)C(=O)N[C@@H](CC(=O)O)C(=O)N[C@@H](CC(=O)O)C(=O)N[C@@H](CCCCN)C(=O)NCC(N)=O)NC(=O)[C@H](C(C)C)NC(=O)[C@H](Cc2c[nH]c3ccccc23)NC(=O)[C@H](Cc2c[nH]cn2)NC(=O)[C@H]([C@@H](C)O)NC(=O)[C@H](C)NC(=O)[C@H](CC(C)C)NC(=O)[C@H]([C@@H](C)O)NC(=O)CNC(=O)[C@H](Cc2c[nH]cn2)NC(=O)[C@H](CC(=O)O)NC(=O)[C@H](Cc2c[nH]c3ccccc23)NC(=O)[C@H](CCCNC(=N)N)NC(=O)[C@H](Cc2ccccc2)NC1=O` [S5FAM] ({CH2CO}-[dY]VLFRWDHGTLATHWVC[AEEA][X1]([Ahx-6FAM])GDYKDDDDKG-NH2; thioether N-17), the Hillslope at H1 ectodomain is 0.97 and 0.86.

“Cyclo(Ac-YITRFTPWPKLYPVWDC)G-NH2 (Ac-YITRFTPWPKLYPVWDCG-NH2; bridge N-17; also: cyclized, linkage type not given here) [L1]”: the ΔTm (°C), purified peptide in the data set with H1 HA was determined as 3.8 °C. Besides, the “Inhibition of infection at a single concentration” value in data set [6] is listed as “strong inhibition of infection”.

Turning to Cyclo(Ac-YRFLWSSFSSQPSWVHC)G-NH2 [B5], the “ΔTm (°C), crude peptide” value at H1 HA amounted to 1.4 °C.

Take Cyclo(Ac-YSNNRNWLPHDWQVLYC)G-NH2 [B6]: the “ΔTm (°C), crude peptide” value on H1 HA worked out at 1.6 °C.

Take Cyclo(Ac-YSYFDVNTIFWFSPFC)CG-NH2 [S9]: the “ΔTm (°C), crude peptide” value at H1 HA came out at 0.0 °C.

Regarding Cyclo(Ac-YVQIFDRYGIYSGKWSC)G-NH2 [B8], at H1 HA, the “ΔTm (°C), crude peptide” value is 1.0 °C.

Take Cyclo(Ac-YYKALWINATFYQSLVC)G-NH2 [R5]: at H1 HA, the ΔTm (°C), crude peptide stood at 1.2 °C.

Cyclo(Ac-YYSWFEATGRFRAIFSC)G-NH2 [R4]: the “ΔTm (°C), crude peptide” value on H1 HA stood at 1.4 °C.

On to Cyclo(Ac-yAFWIRWTNHYRSGFTC)G-NH2 [B4], for which, at H1 HA, the “ΔTm (°C), crude peptide” value was determined as 2.0 °C. Besides, the “Inhibition of infection at a single concentration” value in data set [6] was “strong inhibition of infection”.

As for Cyclo(Ac-yFLC)TKWNYGRWYLFYCG-NH2 [R1], the “ΔTm (°C), crude peptide” value on H1 HA was determined as 1.4 °C.

Consider Cyclo(Ac-yFVNWYWHGEKLFYRYC)G-NH2 [R2], for which, at H1 HA, the “ΔTm (°C), crude peptide” value is 2.2 °C.

Regarding Cyclo(Ac-yIRLFWINGNLVSEWNC)G-NH2 [S2], the “ΔTm (°C), crude peptide” value on H1 HA was 4.4 °C. Besides, the “Binding region in the HA stem (HDX-MS)” value in [5] is given as “aa 369–387”. The “Inhibition of infection at a single concentration” value in data set [6] was “strong inhibition of infection”.

As for Cyclo(Ac-yIVLAWKGHYLESRWTC)G-NH2 [S8], the “ΔTm (°C), crude peptide” value at H1 HA came out at 1.6 °C.

For the molecule Cyclo(Ac-yLIWPSFNQNAKIIFPC)G-NH2 [B9], on H1 HA, the “ΔTm (°C), crude peptide” value came to 3.6 °C.

For the molecule Cyclo(Ac-yRQWFYLGKYYC)TWSCCG-NH2 [S4], the “ΔTm (°C), crude peptide” value on H1 HA came to 0.0 °C.

Turning to Cyclo(Ac-yRVFNISWDGEYRSWWC)G-NH2 [B3], the “ΔTm (°C), crude peptide” value at H1 HA is 0.4 °C.

As to Cyclo(Ac-ySYFIWANFQTEPYFVC)G-NH2 [B2], the “ΔTm (°C), crude peptide” value on H1 HA was found to be 0.6 °C. Also, the “Binding region in the HA stem (HDX-MS)” value in [5] is reported as “aa 369–387”. For the same molecule, in data set [6], the “Inhibition of infection at a single concentration” value is recorded as “strong inhibition of infection”.

On to Cyclo(Ac-yTYYVLLQRWPPVWAPC)G-NH2 [B1], for which, on H1 HA, the “ΔTm (°C), crude peptide” value amounted to 2.0 °C. Moreover, the “Binding region in the HA stem (HDX-MS)” value in [5] is listed as “aa 369–387”. Besides, the “Inhibition of infection at a single concentration” value in data set [6] is “strong inhibition of infection”.

Turning to Cyclo(Ac-yVIAIRPFSQLCWRWVC)G-NH2 [S7], on H1 HA, the “ΔTm (°C), crude peptide” value worked out at 0.4 °C.

As to Cyclo(Ac-yVKIVWFEGTLNTTWFC)G-NH2 [S6], the “ΔTm (°C), crude peptide” value on H1 HA worked out at 1.6 °C.
